Test results reported in EP0521692A2, “Inhibition of tumor cell metastasis potential and invasiveness by chemically-defined oligosaccharides, their derivatives, mimetics and antibodies directed to them” (The Biomembrane Institute, priority 1991, dated 1993).

Key:
[1] = tested on: BL6 clone of B16 melanoma cell line; assay: Lung colony formation after i.v. injection of BL6 cells preincubated with oligosaccharide; type: in vivo, C57/BL mice; conditions: for reductions of metastatic colonies in lung: BL6 cells preincubated with the sugar, then intravenous injection, 0.1 M, 37°C, 10 minutes in the majority of experiments; for total colony number reduced to % of control value: second independent series (Figure 1): preincubation with 0.1 M, 2 x 10^4 cells i.v., counted at 21 days
Procedure: The highly metastatic BL6 clone of B16 melanoma cell line was obtained originally from Dr. Jean Starkey (Montana State Univ., Bozeman, MT), and clones were reselected in syngeneic C57/BL mice according to their metastatic potential. C57/BL mice were maintained in plastic cages under filtered air atmosphere and provided with water and food pellets ad lib. Cells were cultured in RPMI 1640 supplemented with 2 mM glutamine and 10% fetal calf serum (FCS), and detached with phosphate buffered saline (PBS) containing 2 mM EDTA. Viability was tested by trypan blue exclusion test.
A suspension of BL6 cells (1-3 x 10⁶ cells/ml RPMI 1640 medium) was prepared and aliquots were incubated in the presence or absence of various oligosaccharides at various concentrations, at 37°C for 5-10 minutes. Following incubation, typically, 3 x 10⁴ or 2 x 10⁴ cells (with or without oligosaccharide pretreatment) per 200 µl were injected via tail vein into 8-week-old female mice. After 18-21 days, mice were killed, lungs were fixed in 10% formaldehyde in PBS (pH 7.4), and tumor cell colonies were counted under a dissecting microscope, thus providing background values of metastatic melanoma colony number in lung under these conditions. Data on number and size of colonies were statistically treated by the analysis of variance (ANOVA) procedure. Colonies with a diameter of 1 mm or greater were considered large-size and those with a diameter less than 1 mm were considered small-size.
(§1) For one experiment, BL6 cells were incubated with various concentrations of lactose, lacto-N-tetrose (Galβ1→3GlcNAcβl→3Galβ1→4GLc), methyl β-D-lactoside, or phenyl β-D-thiolactoside for various durations. In the majority of experiments, a concentration of 0.1 M was used and cells were incubated at 37°C for 10 minutes, separated from sugar-containing medium by mild centrifugation at 400 x g for 10 minutes, resuspended in RPMI 1640, and injected (3 x 10⁴ cells in 0.2 ml suspension) via tail vein. For some experiments, 2 x 10⁴ cells were injected and colonies were counted at 21 days. Viability and cell growth ability of BL6 cells after incubation in various sugar solutions were tested by trypan blue exclusion test, and by plating in RPMI 1640 culture under normal conditions in vitro, as well as by subcutaneous inoculation in age-matched C57/BL mice in order to test tumor growth.

B16 melanoma cells = assay: Lung colony formation, oligosaccharide injected i.p. before i.v. inoculation of tumor cells; type: in vivo, C57/BL mice; conditions: 1 ml of 0.25 M or 0.5 M i.p., 10 minutes before i.v. B16 melanoma cells; colonies counted 19 days later (Figure 2)
Procedure: Figure 2 graphically illustrates the effect of prior administration of methyl β-D-lactoside on the number and size of lung colony deposits of BL6 cells. Methyl β-D-lactoside (1 ml dosage) was injected intraperitoneally into C57/BL mice. After 10 minutes, B16 melanoma cells were injected intravenously. Lung colonies were counted and sized at 19 days. Group A represents control animals (not administered methyl β-D-lactoside) and groups B and C represent animals injected with 0.25 M and 0.5 M methyl β-D-lactoside, respectively. For each group, column 1 represents the total number of colonies, column 2 the number of colonies with diameter > 1 mm, and column 3 the number of colonies with diameter < 1 mm. Number of experiments is expressed as "n".
In a separate experiment, the effect of methyl β-D-lactoside on melanoma cell metastasis was determined after administration of the oligosaccharide, followed by inoculation with tumor cells. Specifically, a one ml dosage of methyl β-D-lactoside (at a concentration of 0.25 M or 0.5 M) was injected intraperitoneally in mice. After 10 minutes, B16 melanoma cells were injected intravenously. Lung colonies were counted 19 days later.

BL6 cells = assay: In vitro cell growth and thymidine incorporation after incubation with sugar; type: cell-based, mouse
Procedure: as §1

[2] = tested on: melanoma cell (BL6) adhesion on endothelial cells (HuVEC); assay: Melanoma cell adhesion on endothelial cells; type: cell-based, mouse; conditions: Figure 5
Source text: (§2) Figure 5 graphically illustrates the melanoma cell (BL6) adhesion on LacCer (Panel A) and on endothelial cells (HuVEC) (Panel B) are inhibited by LacCer and GM3.
GM3 interacts with LacCer, which is highly expressed on endothelial cells. The order of adhesion of the B16 variants onto LacCer-coated solid phase or onto endothelial cells was also in the same order as their metastatic potential. In contrast, integrin-dependent adhesion of the B16 variants was approximately equal for BL6, F10, and F1 (see Figure 4).

GMP-140 = target: T1, GMP-140 (Homo sapiens, UniProt P16109); assay: Binding of platelets to fluorescent polystyrene beads coated with GSL (flow cytometry); conditions: for Binding index, Ratio (Activated/ Non-activated): ratio of binding index of activated to non-activated platelets; for Binding index, Activated platelets: thrombin-activated platelets, GSL-coated sulfate-containing polystyrene beads, MFI relative to non-GSL-coated beads, means of four experiments
T1 sequence (P16109 42-830): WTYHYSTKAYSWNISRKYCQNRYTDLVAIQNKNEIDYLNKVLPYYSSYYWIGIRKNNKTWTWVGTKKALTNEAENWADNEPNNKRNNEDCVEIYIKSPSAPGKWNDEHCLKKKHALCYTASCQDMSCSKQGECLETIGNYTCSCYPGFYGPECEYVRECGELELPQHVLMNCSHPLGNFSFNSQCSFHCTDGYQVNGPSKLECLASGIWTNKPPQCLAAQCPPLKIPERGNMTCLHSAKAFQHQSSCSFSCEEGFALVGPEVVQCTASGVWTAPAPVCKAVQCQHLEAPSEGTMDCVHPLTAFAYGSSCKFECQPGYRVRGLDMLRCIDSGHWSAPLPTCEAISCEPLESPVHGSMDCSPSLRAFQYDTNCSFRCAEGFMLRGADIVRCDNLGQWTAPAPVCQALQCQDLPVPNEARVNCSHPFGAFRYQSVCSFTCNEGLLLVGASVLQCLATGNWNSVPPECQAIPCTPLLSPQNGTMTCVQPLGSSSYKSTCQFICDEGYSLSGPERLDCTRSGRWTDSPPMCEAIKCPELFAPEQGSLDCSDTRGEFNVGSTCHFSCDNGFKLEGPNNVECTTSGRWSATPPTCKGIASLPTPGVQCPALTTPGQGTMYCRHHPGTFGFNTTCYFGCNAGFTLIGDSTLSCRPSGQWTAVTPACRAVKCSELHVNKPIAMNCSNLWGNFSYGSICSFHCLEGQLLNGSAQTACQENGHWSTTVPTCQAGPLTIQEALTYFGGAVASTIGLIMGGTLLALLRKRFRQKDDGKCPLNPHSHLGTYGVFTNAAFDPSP
Procedure: Fluorescent plastic (e.g. polystyrene) beads (diameter ≈ 0.5 µm) are coated with GSL. GSLs are known to be strongly adsorbed on such beads, which allows construction of fluorescent probes containing specific GSLs. Platelets (activated or non-activated) are incubated with such GSL-coated beads, followed by determination of platelet fluorescence intensity by flow cytometry.
Platelets were isolated from"platelet-rich plasma"obtained from the Oregon Red Cross (Portland, OR), and contaminating red blood cells were removed by centrifugation at 80xg for 10 min. Platelets were centrifuged at 300xg for 10 min, and suspended in Tyrode's buffer (pH 6.5) containing 22 mM citrate buffer with 0.35% bovine serum albumin (BSA). Platelet suspension (1x10⁸/ml) was incubated (pH 7.2, 37°C, 5 min) after addition of thrombin (final concentration 1 U/ml). The mixture was then incubated at 37°C for 10 min without stirring. Thrombin-activated platelets were fixed with an equal volume of 2% formaldehyde in phosphate-buffered saline (PBS), pH 7.2, and washed 2x with PBS containing 1% BSA.
Activated and non-activated platelets were fixed with paraformaldehyde in Ca²⁺-free PBS, pH 7.2, washed 2x with Ca^2a+-containing PBS with 1% BSA, resuspended in CA^2a+-PBS with 1% BSA and 0.1% azide, and the number of platelets adjusted to ≈1x10⁹/ml. The cell suspension was stored at 4°C and the binding assay performed within 24 hr.
Fluorescent polystyrene latex beads were obtained from Molecular Probe, Inc., Eugene, OR. They were yellow-green fluorescent beads with a sulfate group at the surface, diameter ≈0.5 µm (actually 0.486 µm). 1x10⁹ beads in 30 µl ETOH were added to 10 µg of GSL solution in 200 µl C=M, mixed well, and dried under an N₂ stream. The residue was resuspended in 200 µl ethanol, sonicated briefly, and dried under an N₂ stream. […]
20 µl of platelet (non-activated or activated) suspension ... paraformaldehyde-fixed -- containing ≈2x10⁷ platelets was mixed with 10 µl of fluorescent GSL-coated beads -- containing ≈2x10⁷ beads, mixed well, […] allowed to stand at 37°C for 30 min. The platelet suspension was mixed with 200 µl Ca²⁺-PBS and analyzed by flow cytometry (EPICS Profile, Coulter Cytometry, Hialeath, FL).
Flow cytometric analyses of platelets alone and beads alone were performed for a gating set to include most signals produced by platelets by excluding signals produced by free beads. The binding index (BI) was calculated as mean fluorescence intensity (MFI) of platelets incubated with fluorescent GSL-coated beads, divided by MFI of platelets incubated with fluorescent non-GSL-coated (control) beads. […]

[3] = tested on: melanoma cell (BL6) adhesion on LacCer; assay: Melanoma cell adhesion on LacCer-coated solid phase; type: cell-based, mouse; conditions: Figure 5, Panel A
Source text: Figure 4 graphically illustrates that melanoma cell adhesion on LacCer is based on GM3-LacCer interaction. The order of metastatic potential is BL6>F10>F1>>WA4.
as §2

Molecule | reductions of metastatic colonies in lung [1] | effect on cell number increase (BL6 cells) | effect on thymidine incorporation (BL6 cells) | total colony number reduced to % of control value [1] | Binding index, Ratio (Activated/ Non-activated) (GMP-140) | Binding index, Activated platelets (GMP-140) | also measured
OC[C@H]1O[C@@H](O[C@H]2[C@H](O)[C@@H](O)C(O)O[C@@H]2CO)[C@H](O)[C@@H](O)[C@H]1O (stereo partly drawn) [Lactose] | 26% |  |  |  |  |  | 
CC(=O)N[C@H]1[C@H](O[C@H]2[C@@H](O)[C@@H](CO)O[C@@H](O[C@H]3[C@H](O)[C@@H](O)C(O)O[C@@H]3CO)[C@@H]2O)O[C@H](CO)[C@@H](O)[C@@H]1O[C@@H]1O[C@H](CO)[C@H](O)[C@H](O)[C@H]1O (stereo partly drawn) [lacto-N-tetrose, Galβ1→3GlcNAcβl→3Galβl→4Glc] | 36% |  |  |  |  |  | 
CO[C@@H]1O[C@H](CO)[C@@H](O[C@@H]2O[C@H](CO)[C@H](O)[C@H](O)[C@H]2O)[C@H](O)[C@H]1O [methyl β-D-lactoside] |  | slight in vitro stimulatory effect | slight in vitro stimulatory effect | 35% |  |  | lung metastatic colony formation (B16 melanoma cells): significant reduction; B16 melanoma adhesion on endothelial cells [2]: inhibited; reduction of metastatic lung colony number compared to control ([1]; BL6 cells treated with 0.005 M): 8%; reduction of metastatic lung colony number compared to control ([1]; BL6 cells treated with 0.01 M): 16%; reduction of metastatic lung colony number compared to control ([1]; BL6 cells treated with 0.1 M): 43%
OC[C@H]1O[C@@H](O[C@H]2[C@H](O)[C@@H](O)[C@H](Sc3ccccc3)O[C@@H]2CO)[C@H](O)[C@@H](O)[C@H]1O [phenyl β-D-thiolactoside] |  | slight in vitro stimulatory effect | slight in vitro stimulatory effect | 50% |  |  | 
NeuAcα2→3Galβ1→4GlcNAcβ1→3Galβ1→R [SPG, reference compound] |  |  |  |  | 0.7 ± 0.2 | 0.8 ± 0.2 | 
NeuAcα2→3Galβl→4Glcβl→Cer [GM3] |  |  |  |  | 0.7 ± 0.5 | 1.0 ± 0.1 | melanoma cell (BL6) adhesion on LacCer [3]: inhibited
